Where two headings read alike, the source gives them in different places. Marks after values point to notes of the source that are not given here.
What was measured:
[1] = system: bovine vascular smooth muscle cells (bVSMCs); type: cell-based; settings: 7 days; for Cell viability of bVSMCs after seven days (MTT signal, relative to control): mean of three experiments
Summary of the method: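 Bovine VSMCs grown 1 day in M199/20% FCS, then exposed to inhibitors at 0.5–100 μM in M199 + 5% FBS for 7 days, with medium ± inhibitor renewed every 2–3 days. Viability and proliferation read by MTT dehydrogenase activity. DMSO vehicle matched at ≤0.1%.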

[2] = system: human monocyte-macrophages (HMMs); assay: MTT toxicity assay, HMMs, seven days (Example 3); type: cell-based; settings: 7 days; for Cell viability by MTT, percent of control: mean of three experiments; for Toxicity to HMMs (in words): at a concentration of 100 μM
Description: A similar set of toxicity experiments was performed with human monocyte-macrophages (HMMs).

[3] = system: bovine vascular smooth muscle cells (bVSMCs); assay: o-Cresolphthalein Ca2+ assay, bVSMC GAD calcification model (Examples 4 and 5); type: cell-based; settings: for Calcium levels (mass of calcium, FIG. 7B) compared to no inhibitors / Normalised calcium levels (mass of calcium per mass of protein, FIG. 9B): GAD-treated bVSMCs, 7 d
Description: (§1) For the bVSMCs a GAD medium (10 mM β-glycerophosphate/0.1 mM L-ascorbic acid-2-phosphate/10 nM dexamethasone) model was used to induce mineralization in bVSMCs. Accordingly, cells were seeded in tissue culture plates using M199/20% FCS culture medium and cultured overnight. The next day, cells were treated either with medium only (M199/5% FBS)+/−inhibitors, or with the GAD-medium (10 mM β-glycerophosphate/0.1 mM L-ascorbic acid-2-phosphate/[…] dexamethasone)+/−inhibitors.
Medium+/−inhibitors was exchanged every 2-3 days. […]
The o-Cresolphthalein assay is a spectrophotometric method for measuring Ca^2+-concentrations in cell/tissue lysates. Following the calcification experiments, cells are briefly washed to remove medium and 100 […]1 of 0.1 N HCl is added to each well to dissolve any mineral deposits. Then, the Ca^2+-concentration of the samples is measured spectrophotometrically (at 570 nm) in the o-cresolphthalein assay with the help of a CaCl2 standard curve in a concentration range of ˜0.02-270 µg Ca^2+/ml.
The commercial BioRad DC protein assay is based on the Lowry method, aka reaction of proteins with a copper-tartrate complex and subsequent reaction with Folin's reagent. Following the calcification experiment, cells are briefly washed to remove medium and 100 µl of solubilisation solution (0.1 M NaOH/1% SDS/DIW) is added to each well to lyse the cells. The protein concentrations of the lysates are subsequently determined in the BioRad DC assay as per supplier's instructions using BSA (bovine serum albumin) as standard.
The in vitro model is the same as the model used in example 4; bovine vascular smooth muscle cells (bVSMCs) cultured so that they produce extracellular matrix, with the addition of the GAD medium (10 mM β-glycerophosphate/0.1 mM L-ascorbic acid-2-phosphate/10 nM dexamethasone).
As above, cells were treated either with medium only (“no-additions”; NA)+/−inhibitors, or with the GAD-medium+/−inhibitors. The inhibitors used were PJ34 and minocyclin (MC) at 10 μM, 1 μM and 0.1 μM.
The methodology was the same as that described in example 4.

[4] = system: PARP produced by a mammalian cell; settings: have been shown; cited from earlier work
[5] = system: bovine vascular smooth muscle cells (bVSMCs); assay: Alizarin Red S staining, bVSMC GAD calcification model (Example 4); type: cell-based; settings: GAD-treated bVSMCs, 10 μM, 7 d, versus no inhibitor
Description: as §1
Medium+/−inhibitors was exchanged every 2-3 days. Bovine VSMCs were incubated for 7 d prior to assessment.
The Alizarin Red S staining is a visual/histological stain for tissue calcium deposits. Cells are briefly fixed in 4% paraformaldehyde/PIPES buffer pH 7.2 and subsequently stained for 5 min with Alizarin Red S (2% Alizarin Red S/DIW pH 4.2). Excess stain is removed by washing in DIW. Calcium mineral deposits are stained a bright orange red.

[6] = system: bovine vascular smooth muscle cells (bVSMCs); assay: MTT cell viability assay, bVSMCs with or without GAD medium, 7 or 9 days (Example 5); type: cell-based
Description: As above, cells were treated either with medium only (“no-additions”; NA)+/−inhibitors, or with the GAD-medium+/−inhibitors. […] Additionally, an MTT assay was performed as a measure of cell viability/proliferation. Bovine VSMCs were seeded in 96 well plates and cultured in M199/20% FCS for 1 day. Then, the cells were incubated with inhibitor concentrations of 10 μM, 1 μM and 0.1 μM (in M199 medium+5% FBS). […] Then, the MTT assay was performed.

[7] = system: human vascular smooth muscle cells (hVSMCs); assay: o-Cresolphthalein Ca2+ assay, hVSMC Ca/P calcification model (Examples 7-9); type: cell-based; settings: hVSMCs, 6 days; PJ34 10 μM; minocycline and cilostazol 0.5, 1 and 2 μM
Description: Primary hVSMCs were cultured in M199 media containing FBS (M199/5% FBS). They were plated at a known cell density, allowed to grow for 24 hours and then treated with control (DMSO only) or calcification media (DMSO containing 2.7 mM Calcium+2.5 mM phosphate)+/−inhibitors. After 6 days, calcification was assessed using the o-Cresolphthalein assay for quantification of Ca^2+ deposition and a BioRad protein assay for protein content.
Medium+/−inhibitors was exchanged every 2-3 days.
Primary hVSMCs were cultured in M199 media containing FBS (M199/5% FBS). They were plated at a known cell density, allowed to grow for 24 hours and then treated with control (DMSO only) or calcification media (DMSO containing 2.7 mM Calcium+2.5 mM phosphate)+/−inhibitors. After 8 days, calcification was assessed using o-Cresolphthalein assay for quantification of Ca^2+ deposition and a BioRad protein assay for protein content.
All of the compounds tested were used at a concentration of 3 μM. Medium+/−inhibitors was exchanged every 2-3 days.
Primary hVSMCs were cultured in M199 media containing FBS (M199/5% FBS). They were plated at a known cell density, allowed to grow for 24 hours and then treated with control (DMSO only) or calcification media (DMSO containing 2.7 mM Calcium+2.5 mM phosphate)+/−compounds. After 8 days, calcification was assessed using o-Cresolphthalein assay for quantification of Ca^2+ deposition and a BioRad protein assay for protein content.
These concentrations were chosen to mimic the systemic concentrations of these drugs following patient dosing according to the dose schedule in the prescribing information for each drug. Medium+/−inhibitors was exchanged every 2-3 days.

NC(=O)c1cccc(N)c1 [3-AB, 3-aminobenzamide]
Cell viability of bVSMCs after seven days (MTT signal, relative to control) ([1]; 0.5 uM): 95.77 | Cell viability of bVSMCs after seven days (MTT signal, relative to control) ([1]; 1 uM): 99.58 | Cell viability of bVSMCs after seven days (MTT signal, relative to control) ([1]; 2 uM): 94.53 | Cell viability of bVSMCs after seven days (MTT signal, relative to control) ([1]; 5 uM): 93.35* | Cell viability of bVSMCs after seven days (MTT signal, relative to control) ([1]; 10 uM): 91.99* | Cell viability of bVSMCs after seven days (MTT signal, relative to control) ([1]; 20 uM): 93.42* | Cell viability of bVSMCs after seven days (MTT signal, relative to control) ([1]; 50 uM): 94.64 | Cell viability of bVSMCs after seven days (MTT signal, relative to control) ([1]; 100 uM): 92.48* | Toxicity to bVSMCs (MTT assay, in words) ([1]; at the concentrations tested (0.5 to 100 μM)): virtually non-toxic | Cell viability by MTT, percent of control ([2]; 0.5 uM): 115.25 | Cell viability by MTT, percent of control ([2]; 1 uM): 80.78 | Cell viability by MTT, percent of control ([2]; 2 uM): 88.03 | Cell viability by MTT, percent of control ([2]; 5 uM): 93.51 | Cell viability by MTT, percent of control ([2]; 10 uM): 97.34 | Cell viability by MTT, percent of control ([2]; 20 uM): 85.76 | Cell viability by MTT, percent of control ([2]; 50 uM): 95.92 | Cell viability by MTT, percent of control ([2]; 100 uM): 104.20 | Toxicity to HMMs (in words) [2]: relatively innocuous | Calcium levels (mass of calcium, FIG. 7B) compared to no inhibitors ([3]; 10 μM): no effect | Normalised calcium levels (mass of calcium per mass of protein, FIG. 9B) ([3]; 10 μM): slightly lower calcium levels | Inhibition of PARP produced by a mammalian cell [4]: inhibit PARP

CN(C)CC(=O)Nc1ccc2[nH]c(=O)c3ccccc3c2c1.Cl [PJ34, N-(6-Oxo-5,6-dihydrophenanthridin-2-yl)-(N,N-dimethylamino)acetamide hydrochloride]
Cell viability of bVSMCs after seven days (MTT signal, relative to control) ([1]; 0.5 uM): 102.59 | Cell viability of bVSMCs after seven days (MTT signal, relative to control) ([1]; 1 uM): 98.89 | Cell viability of bVSMCs after seven days (MTT signal, relative to control) ([1]; 2 uM): 92.33 | Cell viability of bVSMCs after seven days (MTT signal, relative to control) ([1]; 5 uM): 95.74 | Cell viability of bVSMCs after seven days (MTT signal, relative to control) ([1]; 10 uM): 97.07 | Cell viability of bVSMCs after seven days (MTT signal, relative to control) ([1]; 20 uM): 99.71 | Cell viability of bVSMCs after seven days (MTT signal, relative to control) ([1]; 50 uM): 80.83* | Cell viability of bVSMCs after seven days (MTT signal, relative to control) ([1]; 100 uM): 53.72* | Toxicity to bVSMCs (MTT assay, in words) ([1]; at 50 and 100 μM): toxic | Cell death in bVSMCs (FIG. 4A and example 2) ([1]; bVSMCs): induce some cell death | Cell viability by MTT, percent of control ([2]; 0.5 uM): 106.63 | Cell viability by MTT, percent of control ([2]; 1 uM): 88.38 | Cell viability by MTT, percent of control ([2]; 2 uM): 84.08 | Cell viability by MTT, percent of control ([2]; 5 uM): 95.65 | Cell viability by MTT, percent of control ([2]; 10 uM): 77.14 | Cell viability by MTT, percent of control ([2]; 20 uM): 74.86 | Cell viability by MTT, percent of control ([2]; 50 uM): 60.33* | Cell viability by MTT, percent of control ([2]; 100 uM): 37.30* | Toxicity to HMMs (in words) [2]: most toxic | Degree of mineralization judged by eye (Alizarin Red S, FIG. 6) [5]: slightly worse | Calcium levels (mass of calcium, FIG. 7B) compared to no inhibitors ([3]; 10 μM): elevate calcium levels | Normalised calcium levels (mass of calcium per mass of protein, FIG. 9B) ([3]; 10 μM): elevate calcium levels | Effect on calcification (in words, discussion of Example 5) ([3]; bVSMC GAD model): encouraging calcification | Ca^2+ concentration found in bVSMCs, mean ([3]; nine days, no GAD, 0.1 μM): 1.438 μg calcium/ml | Ca^2+ concentration found in bVSMCs, mean ([3]; nine days, no GAD, 1 μM): 1.179 μg calcium/ml | Ca^2+ concentration found in bVSMCs, mean ([3]; nine days, no GAD, 10 μM): 1.061 μg calcium/ml | Ca^2+ concentration found in bVSMCs, mean ([3]; nine days, with GAD, 0.1 μM): 22.69 μg calcium/ml | Ca^2+ concentration found in bVSMCs, mean ([3]; nine days, with GAD, 1 μM): 132.87 μg calcium/ml | Ca^2+ concentration found in bVSMCs, mean ([3]; nine days, with GAD, 10 μM): 66.68 μg calcium/ml | Ca^2+ concentration found in bVSMCs, mean ([3]; seven days, no GAD, 0.1 μM): 0.612 μg calcium/ml | Ca^2+ concentration found in bVSMCs, mean ([3]; seven days, no GAD, 1 μM): 0.565 μg calcium/ml | Ca^2+ concentration found in bVSMCs, mean ([3]; seven days, no GAD, 10 μM): 0.561 μg calcium/ml | Ca^2+ concentration found in bVSMCs, mean ([3]; seven days, with GAD, 0.1 μM): 1.84 μg calcium/ml | Ca^2+ concentration found in bVSMCs, mean ([3]; seven days, with GAD, 1 μM): 4.06 μg calcium/ml | Ca^2+ concentration found in bVSMCs, mean ([3]; seven days, with GAD, 10 μM): 4.93 μg calcium/ml | Cell viability (%) mean ([6]; nine days, no GAD, 0.1 μM): 99.88% | Cell viability (%) mean ([6]; nine days, no GAD, 1 μM): 97.1% | Cell viability (%) mean ([6]; nine days, no GAD, 10 μM): 98.3% | Cell viability (%) mean ([6]; nine days, with GAD, 0.1 μM): 69.43% | Cell viability (%) mean ([6]; nine days, with GAD, 1 μM): 59.06% | Cell viability (%) mean ([6]; nine days, with GAD, 10 μM): 69.43% | Cell viability (%) mean ([6]; seven days, no GAD, 0.1 μM): 93.81% | Cell viability (%) mean ([6]; seven days, no GAD, 1 μM): 97.16% | Cell viability (%) mean ([6]; seven days, no GAD, 10 μM): 99.25% | Cell viability (%) mean ([6]; seven days, with GAD, 0.1 μM): 96.46% | Cell viability (%) mean ([6]; seven days, with GAD, 1 μM): 94.61% | Cell viability (%) mean ([6]; seven days, with GAD, 10 μM): 90.03% | Calcium levels (mass of calcium, FIG. 17) versus DMSO Ca+P positive control [7]: reduce the calcium levels | Normalised calcium levels (mass of calcium per mass of protein, FIG. 19) [7]: lower calcium levels significantly | Inhibition of PARP produced by a mammalian cell [4]: inhibit PARP

OCCN(CCO)c1nc(N2CCCCC2)c2nc(N(CCO)CCO)nc(N3CCCCC3)c2n1 [Dipyridamol, dipyridamol]
Toxicity to bVSMCs (MTT assay, in words) ([1]; at 50 and 100 μM): toxic | Degree of mineralization judged by eye (Alizarin Red S, FIG. 6) [5]: slightly worse | Calcium levels (mass of calcium, FIG. 7B) compared to no inhibitors ([3]; 10 μM): elevate calcium levels | Normalised calcium levels (mass of calcium per mass of protein, FIG. 9B) ([3]; 10 μM): elevate calcium levels

Source: patent US10159685B2, “Vascular calcification” (Cambridge Enterprise Limited, priority 2016, dated 2018)
